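The compound was tested at five concentrations on cells cultured in 96-well plates, with a 48-hour exposure period. At the TGI there is no net growth.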
Columns and labels:
Assay in all cases: inhibition of tumour cell growth, NCI panel, 48 h
[1] = tested on: SK-MEL-5 melanoma
[2] = tested on: OVCAR-5 ovarian
[3] = tested on: SN12C renal
[4] = tested on: OVCAR-4 ovarian
[5] = tested on: K-562 leukemia
[6] = tested on: HL-60(TB) leukemia
[7] = tested on: IGROV1 ovarian
[8] = tested on: SF-539 CNS
[9] = tested on: SK-OV-3 ovarian
[10] = tested on: UACC-62 melanoma
[11] = tested on: NCI-H23 lung
[12] = tested on: SR leukemia
[13] = tested on: HS 578T breast
[14] = tested on: TK-10 renal
[15] = tested on: M14 melanoma
[16] = tested on: SK-MEL-28 melanoma
[17] = tested on: CCRF-CEM leukemia
[18] = tested on: UO-31 renal
[19] = tested on: HOP-62 NSCLC
[20] = tested on: NCI-H522 lung
[21] = tested on: EKVX NSCLC
[22] = tested on: DU-145 prostate
[23] = tested on: ACHN renal
[24] = tested on: RPMI-8226 leukemia
[25] = tested on: SNB-19 CNS
[26] = tested on: A498 renal
[27] = tested on: BT-549 breast
[28] = tested on: MDA-MB-231 breast
[29] = tested on: HT29 colon
[30] = tested on: SNB-75 CNS
[31] = tested on: T-47D breast
[32] = tested on: OVCAR-3 ovarian
[33] = tested on: NCI/ADR-RES ovarian
[34] = tested on: A549 NSCLC
[35] = tested on: MDA-N
[36] = tested on: PC-3 prostate
[37] = tested on: COLO 205 colon
[38] = tested on: MALME-3M melanoma
[39] = tested on: MDA-MB-435
[40] = tested on: HOP-92 NSCLC
[41] = tested on: HCT-15 colon
[42] = tested on: MOLT-4 leukemia
[43] = tested on: NCI-H226 lung
[44] = tested on: KM12 colon
[45] = tested on: SW-620 colon
[46] = tested on: SK-MEL-2 melanoma
[47] = tested on: 786-0 renal
[48] = tested on: SF-268 CNS
[49] = tested on: CAKI-1 renal
[50] = tested on: MCF7 breast
[51] = tested on: LOX IMVI melanoma
[52] = tested on: U251 CNS
[53] = tested on: RXF 393 renal
[54] = tested on: NCI-H460 lung
[55] = tested on: HCT-116 colon
[56] = tested on: HCC-2998 colon
[57] = tested on: SF-295 CNS
[58] = tested on: OVCAR-8 ovarian
[59] = tested on: UACC-257 melanoma

## CC1(C)CCCOc2cccc(c2)OCCCC(C)(C)C1=O
[1]
  TGI: 35.8 µM
[2]
  TGI: > 100 µM
[3]
  TGI: > 100 µM
[4]
  TGI: > 100 µM
[5]
  TGI: > 100 µM
[6]
  TGI: > 100 µM
[7]
  TGI: > 100 µM
[8]
  TGI: > 100 µM
[9]
  TGI: > 100 µM
[10]
  TGI: 73.6 µM
[11]
  TGI: > 100 µM
[12]
  TGI: > 100 µM
[13]
  TGI: > 100 µM
[14]
  TGI: > 100 µM
[15]
  TGI: > 100 µM
[16]
  TGI: > 100 µM
[17]
  TGI: 44.2 µM
[18]
  TGI: > 100 µM
[19]
  TGI: > 100 µM
[20]
  TGI: 67.3 µM
[21]
  TGI: > 100 µM
[22]
  TGI: > 100 µM
[23]
  TGI: > 100 µM
[24]
  TGI: > 100 µM
[25]
  TGI: > 100 µM
[26]
  TGI: > 100 µM
[27]
  TGI: 89.3 µM
[28]
  TGI: > 100 µM
[29]
  TGI: 43.2 µM
[30]
  TGI: > 100 µM
[31]
  TGI: > 100 µM
[32]
  TGI: 69.1 µM
[33]
  TGI: > 100 µM
[34]
  TGI: > 100 µM
[35]
  TGI: > 100 µM
[36]
  TGI: > 100 µM
[37]
  TGI: > 100 µM
[38]
  TGI: 70.3 µM
[39]
  TGI: > 100 µM
[40]
  TGI: 99.1 µM
[41]
  TGI: > 100 µM
[42]
  TGI: 37.1 µM
[43]
  TGI: 82.9 µM
[44]
  TGI: > 100 µM
[45]
  TGI: > 100 µM
[46]
  TGI: 54.9 µM
[47]
  TGI: > 100 µM
[48]
  TGI: > 100 µM
[49]
  TGI: > 100 µM
[50]
  TGI: > 100 µM
[51]
  TGI: > 100 µM
[52]
  TGI: > 100 µM
[53]
  TGI: 48.5 µM
[54]
  TGI: > 100 µM
[55]
  TGI: > 100 µM

## O=S(=O)(NC1OCCCC1I)c1ccccc1 (configuration not stated)
[1]
  TGI: > 100 µM
[2]
  TGI: > 100 µM
[56]
  TGI: > 100 µM
[3]
  TGI: > 100 µM
[4]
  TGI: > 100 µM
[5]
  TGI: > 100 µM
[7]
  TGI: > 100 µM
[8]
  TGI: > 100 µM
[9]
  TGI: > 100 µM
[10]
  TGI: > 100 µM
[11]
  TGI: > 100 µM
[12]
  TGI: > 100 µM
[13]
  TGI: > 100 µM
[14]
  TGI: > 100 µM
[16]
  TGI: > 100 µM
[17]
  TGI: > 100 µM
[57]
  TGI: > 100 µM
[18]
  TGI: > 100 µM
[58]
  TGI: > 100 µM
[19]
  TGI: > 100 µM
[20]
  TGI: > 100 µM
[21]
  TGI: > 100 µM
[22]
  TGI: > 100 µM
[23]
  TGI: > 100 µM
[24]
  TGI: > 100 µM
[25]
  TGI: > 100 µM
[26]
  TGI: > 100 µM
[27]
  TGI: > 100 µM
[28]
  TGI: > 100 µM
[29]
  TGI: > 100 µM
[30]
  TGI: > 100 µM
[31]
  TGI: > 100 µM
[32]
  TGI: > 100 µM
[33]
  TGI: > 100 µM
[59]
  TGI: > 100 µM
[34]
  TGI: > 100 µM
[35]
  TGI: > 100 µM
[36]
  TGI: > 100 µM
[37]
  TGI: > 100 µM
[38]
  TGI: > 100 µM
[39]
  TGI: > 100 µM
[40]
  TGI: > 100 µM
[41]
  TGI: > 100 µM
[42]
  TGI: > 100 µM
[43]
  TGI: > 100 µM
[44]
  TGI: > 100 µM
[45]
  TGI: > 100 µM
[46]
  TGI: > 100 µM
[47]
  TGI: > 100 µM
[48]
  TGI: > 100 µM
[49]
  TGI: > 100 µM
[50]
  TGI: > 100 µM
[51]
  TGI: > 100 µM
[52]
  TGI: > 100 µM
[53]
  TGI: > 100 µM
[54]
  TGI: > 100 µM
[55]
  TGI: > 100 µM
